The values that follow come from US20250235543A1, “MODIFIED PROTEINS AND PROTEIN DEGRADERS” (Cullgen (Shanghai), Inc., priority 2021, published 2025).

In one experiment the test system is cyclin D1. The experiment can be described thus: Cyclin D1 percentage degradation in Calu-1 cells (immunoblotting). The experiment is classed as cell-based. As to conditions: 200 nM, 16 hours. A digest of the protocol: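 Cells were rinsed once in cold PBS and lysed in cold RIPA buffer containing protease and phosphatase inhibitors, with gentle agitation at 4° C. for 30 min. Lysates were spun at 13,000 rpm for 10 min at 4° C., protein was measured by BCA, and samples were boiled in Laemmli buffer at 99° C. for 5 min before SDS-PAGE immunoblotting.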

Another experiment has as its target T1, CDK4 (Homo sapiens, UniProt P11802).
T1 construct: endogenous in cells; host or cells: Calu-1
The experiment can be described thus: CDK4 percentage degradation in Calu-1 cells (immunoblotting). In kind it is cell-based. To be noted: Calu-1 cells, 200 nM, 16 hours; read-out: CDK4 Degradation (200 nM). In outline:
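Cultured cells were rinsed once in cold PBS and lysed in cold RIPA buffer containing protease and phosphatase inhibitors, with gentle agitation at 4° C. for 30 min. Lysates were centrifuged at 13,000 rpm for 10 min at 4° C., and protein was quantified by BCA. Samples were then separated by SDS-PAGE, detected with ECL, and the CDK4 bands quantified in Image Lab.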
For orientation: Immunoblotting shows a protein as a band on a membrane.

T1 sequence (P11802 2-303 limits assumed): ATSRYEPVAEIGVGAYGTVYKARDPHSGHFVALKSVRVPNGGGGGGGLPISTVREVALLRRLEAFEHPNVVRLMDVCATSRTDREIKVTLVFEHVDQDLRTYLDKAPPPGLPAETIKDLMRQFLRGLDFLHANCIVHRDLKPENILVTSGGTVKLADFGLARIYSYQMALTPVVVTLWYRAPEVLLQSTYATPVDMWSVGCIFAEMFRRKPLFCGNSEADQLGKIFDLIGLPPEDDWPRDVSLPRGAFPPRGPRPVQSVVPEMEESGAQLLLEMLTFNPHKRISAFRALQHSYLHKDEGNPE
T1 sequence (P24385 whole entry partner): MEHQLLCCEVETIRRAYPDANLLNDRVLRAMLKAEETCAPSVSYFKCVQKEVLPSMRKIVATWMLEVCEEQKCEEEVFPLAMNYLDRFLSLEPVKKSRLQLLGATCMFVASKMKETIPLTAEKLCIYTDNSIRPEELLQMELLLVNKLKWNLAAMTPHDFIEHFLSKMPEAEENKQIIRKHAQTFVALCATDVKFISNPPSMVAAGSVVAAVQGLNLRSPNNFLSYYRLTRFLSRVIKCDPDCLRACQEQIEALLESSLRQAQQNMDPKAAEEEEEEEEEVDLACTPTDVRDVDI
T1 sequence (Q16531 2-1140 limits assumed, further chain): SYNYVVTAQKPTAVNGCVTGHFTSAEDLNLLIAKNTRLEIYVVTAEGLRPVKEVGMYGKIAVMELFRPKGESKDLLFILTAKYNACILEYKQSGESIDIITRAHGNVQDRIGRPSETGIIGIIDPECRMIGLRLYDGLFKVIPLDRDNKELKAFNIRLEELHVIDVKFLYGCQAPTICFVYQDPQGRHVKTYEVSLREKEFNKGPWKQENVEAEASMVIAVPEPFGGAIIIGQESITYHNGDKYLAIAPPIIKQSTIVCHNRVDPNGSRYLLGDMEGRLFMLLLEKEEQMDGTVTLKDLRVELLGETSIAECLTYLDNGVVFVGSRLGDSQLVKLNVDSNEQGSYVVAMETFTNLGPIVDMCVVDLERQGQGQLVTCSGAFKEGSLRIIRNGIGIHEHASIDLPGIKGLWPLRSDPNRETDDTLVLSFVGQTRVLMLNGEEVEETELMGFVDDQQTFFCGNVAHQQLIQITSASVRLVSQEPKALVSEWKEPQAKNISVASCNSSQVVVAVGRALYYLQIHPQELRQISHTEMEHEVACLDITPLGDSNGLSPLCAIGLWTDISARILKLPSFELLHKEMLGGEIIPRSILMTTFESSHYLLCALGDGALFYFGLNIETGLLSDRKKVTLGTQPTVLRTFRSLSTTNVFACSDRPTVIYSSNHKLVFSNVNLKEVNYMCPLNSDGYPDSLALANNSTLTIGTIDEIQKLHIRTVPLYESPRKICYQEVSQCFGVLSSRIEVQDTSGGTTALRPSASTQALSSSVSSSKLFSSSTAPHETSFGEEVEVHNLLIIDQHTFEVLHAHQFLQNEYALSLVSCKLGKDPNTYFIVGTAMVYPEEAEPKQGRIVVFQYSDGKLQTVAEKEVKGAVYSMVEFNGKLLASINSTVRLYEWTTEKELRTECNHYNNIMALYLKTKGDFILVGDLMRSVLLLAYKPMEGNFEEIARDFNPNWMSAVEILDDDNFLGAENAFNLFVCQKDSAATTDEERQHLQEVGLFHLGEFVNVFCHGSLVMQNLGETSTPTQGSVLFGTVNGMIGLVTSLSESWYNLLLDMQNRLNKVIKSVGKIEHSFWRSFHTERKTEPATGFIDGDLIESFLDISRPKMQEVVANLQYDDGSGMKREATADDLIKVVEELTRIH

On to `CC(=O)c1c(C)c2cnc(Nc3ccc(N4CCN(CC(=O)NCCOCCOCCC(=O)Nc5ccccc5C(=O)Nc5cc(C(F)(F)F)n(C)n5)CC4)cn3)nc2n(C2CCCC2)c1=O` [CPD-069, 2-(3-(2-(2-(2-(4-(6-((6-Acetyl-8-cyclopentyl-5-methyl-7-oxo-7,8-dihydropyrido[2,3-d]pyrimidin-2-yl)amino)pyridin-3-yl)piperazin-1-yl)acetamido)ethoxy)ethoxy)propanamido)-N-(1-methyl-5-(trifluoromethyl)-1H-pyrazol-3-yl)benzamide], for which the “CyclinD1 Degradation (200 nM)” value in the experiment on cyclin D1 is “D (protein percentage degradation <30%)”. Further, the inhibition at 0.2 µM on CDK4 is less than 30%.

For `CC(=O)c1c(C)c2cnc(Nc3ccc(N4CCN(CC(=O)NCCOCCOCCC(=O)Nc5ccccc5C(=O)Nc5nc(C(C)C)c(C)s5)CC4)cn3)nc2n(C2CCCC2)c1=O` [CPD-070, 2-(3-(2-(2-(2-(4-(6-((6-Acetyl-8-cyclopentyl-5-methyl-7-oxo-7,8-dihydropyrido[2,3-d]pyrimidin-2-yl)amino)pyridin-3-yl)piperazin-1-yl)acetamido)ethoxy)ethoxy)propanamido)-N-(4-isopropyl-5-methylthiazol-2-yl)benzamide], the “CyclinD1 Degradation (200 nM)” value with cyclin D1 is on record as “A (protein percentage degradation >=80%)”. In addition, the inhibition at 0.2 µM at CDK4 was greater than 80%.

For `CC(=O)c1c(C)c2cnc(Nc3ccc(N4CCN(CC(=O)NCCOCCOCCC(=O)Nc5ccccc5C(=O)Nc5nc(Br)c(C)s5)CC4)cn3)nc2n(C2CCCC2)c1=O` [CPD-071, 2-(3-(2-(2-(2-(4-(6-((6-Acetyl-8-cyclopentyl-5-methyl-7-oxo-7,8-dihydropyrido[2,3-d]pyrimidin-2-yl)amino)pyridin-3-yl)piperazin-1-yl)acetamido)ethoxy)ethoxy)propanamido)-N-(4-bromo-5-methylthiazol-2-yl)benzamide], the “CyclinD1 Degradation (200 nM)” value in the experiment with cyclin D1 is reported as “A (protein percentage degradation >=80%)”. Besides, the inhibition at 0.2 µM at CDK4 was greater than 80%.

Turning to `CC(=O)c1c(C)c2cnc(Nc3ccc(N4CCN(CC(=O)NCCOCCOCCC(=O)Nc5ccccc5C(=O)Nc5nc(C6CCNCC6)c(C)s5)CC4)cn3)nc2n(C2CCCC2)c1=O` [CPD-072, 2-(3-(2-(2-(2-(4-(6-((6-Acetyl-8-cyclopentyl-5-methyl-7-oxo-7,8-dihydropyrido[2,3-d]pyrimidin-2-yl)amino)pyridin-3-yl)piperazin-1-yl)acetamido)ethoxy)ethoxy)propanamido)-N-(5-methyl-4-(piperidin-4-yl)thiazol-2-yl)benzamide], the “CyclinD1 Degradation (200 nM)” value with cyclin D1 is reported as “D (protein percentage degradation <30%)”. Further, the inhibition at 0.2 µM at CDK4 lay in the range of 50 to 80%.

As to `CC(=O)c1c(C)c2cnc(Nc3ccc(N4CCN(CC(=O)NCCOCCOCCC(=O)Nc5ccccc5C(=O)Nc5cc[nH]n5)CC4)cn3)nc2n(C2CCCC2)c1=O` [CPD-073, 2-(3-(2-(2-(2-(4-(6-((6-Acetyl-8-cyclopentyl-5-methyl-7-oxo-7,8-dihydropyrido[2,3-d]pyrimidin-2-yl)amino)pyridin-3-yl)piperazin-1-yl)acetamido)ethoxy)ethoxy)propanamido)-N-(1H-pyrazol-3-yl)benzamide], the “CyclinD1 Degradation (200 nM)” value in the experiment with cyclin D1 is reported as “D (protein percentage degradation <30%)”. Besides, the inhibition at 0.2 µM on CDK4 lay within 50 to 80%.

As for `CC(=O)c1c(C)c2cnc(Nc3ccc(N4CCN(CC(=O)NCCOCCOCCC(=O)Nc5ccccc5C(=O)Nc5cc(C)[nH]n5)CC4)cn3)nc2n(C2CCCC2)c1=O` [CPD-074, 2-(3-(2-(2-(2-(4-(6-((6-Acetyl-8-cyclopentyl-5-methyl-7-oxo-7,8-dihydropyrido[2,3-d]pyrimidin-2-yl)amino)pyridin-3-yl)piperazin-1-yl)acetamido)ethoxy)ethoxy)propanamido)-N-(5-methyl-1H-pyrazol-3-yl)benzamide], the “CyclinD1 Degradation (200 nM)” value in the experiment on cyclin D1 was “B (protein percentage degradation <80%, and >=50%)”. The inhibition at 0.2 µM on CDK4 fell in the range of 50 to 80%.
